Values of other authors, collected in patent publication US9549925B2, “Lipid-based compositions of antiinfectives for treating pulmonary infections and methods of use thereof” (Insmed Incorporated, priority 2005, dated 2017).

Settings: free tobramycin, nebulized, nominal dose 300 mg; absorption into the systemic circulation

NC[C@H]1O[C@H](O[C@H]2[C@H](O)[C@@H](O[C@H]3O[C@H](CO)[C@@H](O)[C@H](N)[C@H]3O)[C@H](N)C[C@@H]2N)[C@H](N)C[C@@H]1O [tobramycin, Tobramycin]
absorption half-life from the lung: about 1.5 hr
